Patent US11229398B2, “Electrode assemblies for neurostimulation treatment” (Cardionomic, Inc., priority 2016, dated 2022)

Tested on: normal, non-HF ovine model
Experiment: Change in contractility (max(dP/dt) from pressure measurements as surrogate) and beat-by-beat correlation of right and left ventricle contractility after an injection
Type: in vivo
Conditions: for Contractility % Increase: after the injection, max(dP/dt) used as surrogate for contractility
From the text: The correlation was a heartbeat-by-heartbeat analysis. Pressure measurements, taken by a Millar catheter comprising a MEMS pressure sensor, in units of max(dP/dt) was used as a surrogate for contractility.
The first change, a dobutamine injection, provided a very high contractility increase greater than 500%. The average correlation between right ventricle contractility and left ventricle contractility was very good at 0.91, where 1.00 is a perfect correlation. Accordingly, if a subject is given a dobutamine injection, measuring changes to right ventricle contractility can provide accurate information about changes to left ventricle contractility. The first change was repeated three times.
The second change, calcium injection at 5 mL, provided a contractility increase of about 20%. […] The average correlation between right ventricle contractility and left ventricle contractility using a Millar (MEMS) sensor on a catheter was very good at 0.91. The average correlation between right ventricle contractility and left ventricle contractility using a fluid-filled lumen of a Swan-Ganz catheter in communication with an external pressure sensor was also very good at 0.87. Accordingly, under certain circumstances such as measurement of an animal (normal, non-HF ovine model) model, if a subject is given a calcium injection, measuring changes to right ventricle contractility with a MEMS sensor or a fluid filled lumen can provide accurate information about changes to left ventricle contractility.
The fourth change, neurostimulation as described herein, provided a contractility increase of about 28%. The correlation between right ventricle contractility and left ventricle contractility was very good at 0.90. Accordingly, if a subject is given neurostimulation, measuring changes to right ventricle contractility can provide accurate information about changes to left ventricle contractility. […] Thereafter, the left ventricle contractility tapered off logarithmically or exponentially, but the right ventricle contractility decreased very slowly. These differences help to show why the correlation between left ventricle contractility and right ventricle contractility are poorly correlated for calcium injections. The fourth change was not repeated.

[1] = first several beats after the injection

In the case of calcium [Calcium Injection (5 mL)], the “Contractility % Increase” value is reported as about 20%, the “Contractility % Increase” value (listed as calcium injection) is reported as “about 20%” and the left ventricle contractility [1] is reported as “increased dramatically”. The right ventricle contractility [1] was “only slightly increased”.
